# Reference: PubChem BioAssay AID1963434 (Molecular Pharmacology Branch, DTP, NCI, 2024)
# Tested on: 755483-174-R-J1-PDC complex spheroid growth, percent test/control
# Assay: Anticancer human tumor 755483-174-R-J1-PDC patient-derived rhabdomyosarcoma cell line growth inhibition [Asc]
# Settings: for IC50: curve of first compound; for viability, T/C: stronger effect = lower value
# Outline: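 Stromal components (HUVEC and hMSC) are co-assembled with the cancer cells into multicellular spheroids. Drugs are then added singly or paired, at concentrations falling by half-log increments from a clinically achievable maximum, capped at 10 microM without known Cmax.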
# [1] = second compound 0.01 µM, first compound 0.00316 µM
# [2] = second compound 0.01 µM, first compound 0.01 µM
# [3] = second compound 0.01 µM, first compound 0.0316 µM
# [4] = second compound 0.01 µM, first compound 0.1 µM
# [5] = second compound 0.01 µM, first compound 0.316 µM
# [6] = second compound 0.01 µM, first compound 1 µM
# [7] = second compound 0.0316 µM, first compound 0.00316 µM
# [8] = second compound 0.0316 µM, first compound 0.01 µM
# [9] = second compound 0.0316 µM, first compound 0.0316 µM
# [10] = second compound 0.0316 µM, first compound 0.1 µM
# [11] = second compound 0.0316 µM, first compound 0.316 µM
# [12] = second compound 0.0316 µM, first compound 1 µM
# [13] = second compound 0.1 µM, first compound 0.00316 µM
# [14] = second compound 0.1 µM, first compound 0.01 µM
# [15] = second compound 0.1 µM, first compound 0.0316 µM
# [16] = second compound 0.1 µM, first compound 0.1 µM
# [17] = second compound 0.1 µM, first compound 0.316 µM
# [18] = second compound 0.1 µM, first compound 1 µM
# [19] = second compound 0.316 µM, first compound 0.00316 µM
# [20] = second compound 0.316 µM, first compound 0.01 µM
# [21] = second compound 0.316 µM, first compound 0.0316 µM
# [22] = second compound 0.316 µM, first compound 0.1 µM
# [23] = second compound 0.316 µM, first compound 0.316 µM
# [24] = second compound 0.316 µM, first compound 1 µM
# [25] = second compound 1 µM, first compound 0.00316 µM
# [26] = second compound 1 µM, first compound 0.01 µM
# [27] = second compound 1 µM, first compound 0.0316 µM
# [28] = second compound 1 µM, first compound 0.1 µM
# [29] = second compound 1 µM, first compound 0.316 µM
# [30] = second compound 1 µM, first compound 1 µM
# 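Also: spheroids exposed to compounds for seven days before readout.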
smiles,measurement,setting,value
CCN1CCN(Cc2ccc(Nc3ncc(F)c(-c4cc(F)c5nc(C)n(C(C)C)c5c4)n3)nc2)CC1 + CNC(C)C(=O)NC1CN(S(=O)(=O)c2cccc(S(=O)(=O)N3CCC4CCC(C(=O)NC(c5ccccc5)c5ccccc5)N4C(=O)C(NC(=O)C(C)NC)C3)c2)CCC2CCC(C(=O)NC(c3ccccc3)c3ccccc3)N2C1=O,IC50,second compound 0.01 µM,< 3.16 nM
same,IC50,second compound 0.0316 µM,< 3.16 nM
same,IC50,second compound 0.1 µM,> 1000 nM
same,IC50,second compound 0.316 µM,< 3.16 nM
same,IC50,second compound 1 µM,< 3.16 nM
same,"viability, T/C",[1],31.1%
same,"viability, T/C",[2],66%
same,"viability, T/C",[3],53.4%
same,"viability, T/C",[4],54.2%
same,"viability, T/C",[5],61%
same,"viability, T/C",[6],74.4%
same,"viability, T/C",[7],43.8%
same,"viability, T/C",[8],33.8%
same,"viability, T/C",[9],40.6%
same,"viability, T/C",[10],40.5%
same,"viability, T/C",[11],63.8%
same,"viability, T/C",[12],69.5%
same,"viability, T/C",[13],58.5%
same,"viability, T/C",[14],37.7%
same,"viability, T/C",[15],55.4%
same,"viability, T/C",[16],59.5%
same,"viability, T/C",[17],47.8%
same,"viability, T/C",[18],57.5%
same,"viability, T/C",[19],16.2%
same,"viability, T/C",[20],37.3%
same,"viability, T/C",[21],40.9%
same,"viability, T/C",[22],31%
same,"viability, T/C",[23],47.5%
same,"viability, T/C",[24],39.9%
same,"viability, T/C",[25],32.1%
same,"viability, T/C",[26],18.2%
same,"viability, T/C",[27],26.8%
same,"viability, T/C",[28],18.6%
same,"viability, T/C",[29],26.1%
same,"viability, T/C",[30],32.3%
COc1c(OCCCN2CCOCC2)ccc2c3n(c(=NC(=O)c4cnc(N)nc4)nc12)CCN3 + CNC(C)C(=O)NC1CN(S(=O)(=O)c2cccc(S(=O)(=O)N3CCC4CCC(C(=O)NC(c5ccccc5)c5ccccc5)N4C(=O)C(NC(=O)C(C)NC)C3)c2)CCC2CCC(C(=O)NC(c3ccccc3)c3ccccc3)N2C1=O,IC50,second compound 0.01 µM,21.4 nM
same,IC50,second compound 0.0316 µM,< 3.16 nM
same,IC50,second compound 0.1 µM,< 3.16 nM
same,IC50,second compound 0.316 µM,< 3.16 nM
same,IC50,second compound 1 µM,< 3.16 nM
same,"viability, T/C",[1],59.1%
same,"viability, T/C",[2],59.4%
same,"viability, T/C",[3],45.7%
same,"viability, T/C",[4],20.4%
same,"viability, T/C",[5],8.95%
same,"viability, T/C",[6],3.6%
same,"viability, T/C",[7],41.9%
same,"viability, T/C",[8],56.3%
same,"viability, T/C",[9],40.2%
same,"viability, T/C",[10],19%
same,"viability, T/C",[11],5.22%
same,"viability, T/C",[12],3.87%
same,"viability, T/C",[13],36%
same,"viability, T/C",[14],43.2%
same,"viability, T/C",[15],35.6%
same,"viability, T/C",[16],11.6%
same,"viability, T/C",[17],6.95%
same,"viability, T/C",[18],3.25%
same,"viability, T/C",[19],32%
same,"viability, T/C",[20],29.7%
same,"viability, T/C",[21],51%
same,"viability, T/C",[22],13.7%
same,"viability, T/C",[23],6.6%
same,"viability, T/C",[24],1.75%
same,"viability, T/C",[25],35.4%
same,"viability, T/C",[26],16.7%
same,"viability, T/C",[27],24.5%
same,"viability, T/C",[28],27.5%
same,"viability, T/C",[29],22.7%
same,"viability, T/C",[30],1.36%
NC(=O)C(=Cn1cnc(-c2cc(C(F)(F)F)cc(C(F)(F)F)c2)n1)c1cncnc1 + CNC(C)C(=O)NC1CN(S(=O)(=O)c2cccc(S(=O)(=O)N3CCC4CCC(C(=O)NC(c5ccccc5)c5ccccc5)N4C(=O)C(NC(=O)C(C)NC)C3)c2)CCC2CCC(C(=O)NC(c3ccccc3)c3ccccc3)N2C1=O,IC50,second compound 0.01 µM,2.6 nM
same,IC50,second compound 0.0316 µM,1.67 nM
same,IC50,second compound 0.1 µM,< 0.949 nM
same,IC50,second compound 0.316 µM,< 0.949 nM
same,IC50,second compound 1 µM,< 0.949 nM
same,"viability, T/C","second compound 0.01 µM, first compound 0.000949 µM",73.8%
same,"viability, T/C","second compound 0.01 µM, first compound 0.003 µM",46.7%
same,"viability, T/C","second compound 0.01 µM, first compound 0.00949 µM",15.2%
same,"viability, T/C","second compound 0.01 µM, first compound 0.03 µM",5.78%
same,"viability, T/C","second compound 0.01 µM, first compound 0.0949 µM",4.79%
same,"viability, T/C","second compound 0.01 µM, first compound 0.3 µM",3.74%
same,"viability, T/C","second compound 0.0316 µM, first compound 0.000949 µM",63.4%
same,"viability, T/C","second compound 0.0316 µM, first compound 0.003 µM",36.2%
same,"viability, T/C","second compound 0.0316 µM, first compound 0.00949 µM",13.5%
same,"viability, T/C","second compound 0.0316 µM, first compound 0.03 µM",6.2%
same,"viability, T/C","second compound 0.0316 µM, first compound 0.0949 µM",6.42%
same,"viability, T/C","second compound 0.0316 µM, first compound 0.3 µM",22%
same,"viability, T/C","second compound 0.1 µM, first compound 0.000949 µM",41.2%
same,"viability, T/C","second compound 0.1 µM, first compound 0.003 µM",35.9%
same,"viability, T/C","second compound 0.1 µM, first compound 0.00949 µM",7.59%
same,"viability, T/C","second compound 0.1 µM, first compound 0.03 µM",6.43%
same,"viability, T/C","second compound 0.1 µM, first compound 0.0949 µM",4.59%
same,"viability, T/C","second compound 0.1 µM, first compound 0.3 µM",3.8%
same,"viability, T/C","second compound 0.316 µM, first compound 0.000949 µM",26.7%
same,"viability, T/C","second compound 0.316 µM, first compound 0.003 µM",21%
same,"viability, T/C","second compound 0.316 µM, first compound 0.00949 µM",22%
same,"viability, T/C","second compound 0.316 µM, first compound 0.03 µM",4.35%
same,"viability, T/C","second compound 0.316 µM, first compound 0.0949 µM",26.3%
same,"viability, T/C","second compound 0.316 µM, first compound 0.3 µM",2.93%
same,"viability, T/C","second compound 1 µM, first compound 0.000949 µM",28.7%
same,"viability, T/C","second compound 1 µM, first compound 0.003 µM",17.9%
same,"viability, T/C","second compound 1 µM, first compound 0.00949 µM",22.5%
same,"viability, T/C","second compound 1 µM, first compound 0.03 µM",2.28%
same,"viability, T/C","second compound 1 µM, first compound 0.0949 µM",3.49%
same,"viability, T/C","second compound 1 µM, first compound 0.3 µM",1.7%
NC1CCC(NC2CC2c2ccccc2)CC1 (stereo not given) + CNC(C)C(=O)NC1CN(S(=O)(=O)c2cccc(S(=O)(=O)N3CCC4CCC(C(=O)NC(c5ccccc5)c5ccccc5)N4C(=O)C(NC(=O)C(C)NC)C3)c2)CCC2CCC(C(=O)NC(c3ccccc3)c3ccccc3)N2C1=O,IC50,second compound 0.01 µM,< 0.316 nM
same,IC50,second compound 0.0316 µM,< 0.316 nM
same,IC50,second compound 0.1 µM,< 0.316 nM
same,IC50,second compound 0.316 µM,< 0.316 nM
same,IC50,second compound 1 µM,< 0.316 nM
same,"viability, T/C","second compound 0.01 µM, first compound 0.000316 µM",27.4%
same,"viability, T/C","second compound 0.01 µM, first compound 0.001 µM",38.9%
same,"viability, T/C",[1],36.8%
same,"viability, T/C",[2],48.5%
same,"viability, T/C",[3],50.3%
same,"viability, T/C",[4],45.1%
same,"viability, T/C","second compound 0.0316 µM, first compound 0.000316 µM",36.4%
same,"viability, T/C","second compound 0.0316 µM, first compound 0.001 µM",24.9%
same,"viability, T/C",[7],31.8%
same,"viability, T/C",[8],37.5%
same,"viability, T/C",[9],28.9%
same,"viability, T/C",[10],30%
same,"viability, T/C","second compound 0.1 µM, first compound 0.000316 µM",32.6%
same,"viability, T/C","second compound 0.1 µM, first compound 0.001 µM",27.7%
same,"viability, T/C",[13],33.4%
same,"viability, T/C",[14],31.4%
same,"viability, T/C",[15],45.8%
same,"viability, T/C",[16],28.4%
same,"viability, T/C","second compound 0.316 µM, first compound 0.000316 µM",26.7%
same,"viability, T/C","second compound 0.316 µM, first compound 0.001 µM",33.6%
same,"viability, T/C",[19],37.8%
same,"viability, T/C",[20],29.1%
same,"viability, T/C",[21],21.3%
same,"viability, T/C",[22],29.5%
same,"viability, T/C","second compound 1 µM, first compound 0.000316 µM",25.9%
same,"viability, T/C","second compound 1 µM, first compound 0.001 µM",8.86%
same,"viability, T/C",[25],23.5%
same,"viability, T/C",[26],20%
same,"viability, T/C",[27],21.7%
same,"viability, T/C",[28],25.7%
